Results as given in US11351218B2, “Composition for preventing or treating glioblastoma comprising Platycodon grandiflorum A. De Candolle, Scutellaria baicalensis, Phellodendron amurense Ruprecht or Rubus coreanus” (University-Industry Cooperation Group of Kyung Hee …, priority 2019, dated 2022).

System: U87MG and U373MG cells
Experiment: Immunofluorescence of SQSTM1/p62 with GFP-LC3B in GBM cells
Type: cell-based, human
Settings: PD 10 μM or BafA1 (100 μM), 24 hours
Experimental: The cells expressing GFP-LC3B (green) were treated with DMSO, PD (10 μM), or BafA1 (100 μM) for 24 hours, followed by staining with an anti-SQSTM1 antibody (red) and DAPI (blue). The merged images (yellow) indicate co-localization between LC3 and p62. The panels on the right are higher-magnification images of the boxed regions.
Cultured cells seeded in plates with microscope coverslips were transfected with a pGFP-LC3B plasmid using Lipofectamine 3000 (Thermo Fisher Scientific) according to the manufacturer's instructions. After the transfection, the cells were fixed with 4% paraformaldehyde (PFA) in phosphate-buffered saline (PBS) at room temperature for 10 minutes. The images were examined under a laser confocal microscope (Zeiss, Oberkochen, Baden-Wurttemberg, Germany).
Cells treated with the materials were permeabilized with 0.01% Triton X-100 in PBS. After blocking the resulting cells in 2% bovine serum albumin (BSA) in PBS, they were incubated at 4° C. with a primary antibody against SQSTM1/p62 (Santa Cruz) overnight. The stained cells were incubated with an Alexa594-conjugated secondary antibody (Invitrogen, Calif., USA). The images were examined under a Zeiss laser confocal microscope.

## C[C@@H]1O[C@@H](O[C@H]2[C@H](OC(=O)[C@]34CCC(C)(C)C[C@H]3C3=CC[C@@H]5[C@@]6(C)C[C@H](O)[C@H](O[C@@H]7O[C@H](CO)[C@@H](O)[C@H](O)[C@H]7O)C(CO)(CO)[C@@H]6CC[C@@]5(C)[C@]3(C)C[C@H]4O)OC[C@H](O)[C@@H]2O)[C@H](O)[C@H](O)[C@H]1O[C@@H]1OC[C@@H](O)[C@H](O[C@@H]2OC[C@](O)(CO)[C@H]2O)[C@H]1O [PD, platycodin D]
  p62 staining and colocalization with GFP-LC3B puncta: increase
